Measurements as given in patent US9994551B2, “Pyridazine derivatives as RORc modulators” (Genentech, Inc., priority 2015, dated 2018).

Target: T1, RORc ligand binding domain (Homo sapiens, UniProt P51449)
T1 construct: host or cells: E. coli
T1 sequence (P51449 269-508 limits assumed): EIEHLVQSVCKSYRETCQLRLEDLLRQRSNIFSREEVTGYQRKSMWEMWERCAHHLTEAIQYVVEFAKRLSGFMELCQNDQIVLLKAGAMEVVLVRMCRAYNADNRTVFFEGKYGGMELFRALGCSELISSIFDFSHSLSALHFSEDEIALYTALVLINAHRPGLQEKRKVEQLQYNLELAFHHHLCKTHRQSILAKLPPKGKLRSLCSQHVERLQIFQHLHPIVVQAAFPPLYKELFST
Assay: In vitro RORc ligand binding assay (25-[3H]hydroxycholesterol displacement, filter binding)

Compound | IC50 [nM]
CNC(=O)N1CCO[C@H]([C@@]23CC[C@@H](c4cc(-c5c(F)cccc5F)nnc42)C3(C)C)C1 [Compound 69, (R)-2-((5R,8R)-3-(2,6-difluorophenyl)-9,9-dimethyl-5,6,7,8-tetrahydro-5,8-methanocinnolin-8-yl)-N-methylmorpholine-4-carboxamide] | 37.7
CC1(C)[C@H]2CC[C@]1([C@@H]1CN(C(=O)CO)CCO1)c1nnc(-c3c(F)cccc3F)cc12 [Compound 75, 1-((R)-2-((5R,8R)-3-(2,6-difluorophenyl)-9,9-dimethyl-5,6,7,8-tetrahydro-5,8-methanocinnolin-8-yl)morpholino)-2-hydroxyethanone] | 234
CC1(C)[C@H]2CC[C@]1([C@H]1CCCN(C(=O)c3ccon3)C1)c1nnc(-c3c(F)cccc3F)cc12 [Compound 131, [3-[5-(2,6-difluorophenyl)-11,11-dimethyl-3,4-diazatricyclo[6.2.1.02,7]undeca-2,4,6-trien-1-yl]-1-piperidyl]-isoxazol-3-yl-methanone] | 6.2
CC1(C)[C@H]2CC[C@]1(Oc1cccnn1)c1nnc(-c3c(F)cccc3F)cc12 [Compound 16, (5S,8R)-3-(2,6-difluorophenyl)-9,9-dimethyl-8-(pyridazin-3-yloxy)-5,6,7,8-tetrahydro-5,8-methanocinnoline] | 254
CC1(C)[C@H]2CC[C@]1([C@H]1CCC(=O)NC1)c1nnc(-c3c(F)cccc3F)cc12 [Compound 92, (R)-5-((5R,8R)-3-(2,6-difluorophenyl)-9,9-dimethyl-5,6,7,8-tetrahydro-5,8-methanocinnolin-8-yl)piperidin-2-one] | 215
CC(C)(O)CNC(=O)N1CCC[C@H]([C@@]23CC[C@@H](c4cc(-c5c(F)cccc5F)nnc42)C3(C)C)C1 [Compound 150, 3-[5-(2,6-difluorophenyl)-11,11-dimethyl-3,4-diazatricyclo[6.2.1.02,7]undeca-2,4,6-trien-1-yl]-N-(2-hydroxy-2-methyl-propyl)piperidine-1-carboxamide] | 7.9
CC[C@H](O[C@@]12CC[C@@H](c3cc(-c4c(F)cccc4F)nnc31)C2(C)C)C(=O)NCCO [Compound 23, (S)-2-(((5S,8R)-3-(2,6-difluorophenyl)-9,9-dimethyl-5,6,7,8-tetrahydro-5,8-methanocinnolin-8-yl)oxy)-N-(2-hydroxyethyl)butanamide] | 44.5
Cc1noc(N2CCO[C@@H]([C@@]34CC[C@@H](c5cc(-c6c(F)cccc6F)nnc53)C4(C)C)C2)n1 [Compound 91, (S)-2-((5R,8R)-3-(2,6-difluorophenyl)-9,9-dimethyl-5,6,7,8-tetrahydro-5,8-methanocinnolin-8-yl)-4-(3-methyl-1,2,4-oxadiazol-5-yl)morpholine] | 101
CCC[C@H](O[C@@]12CC[C@@H](c3cc(-c4c(F)cccc4F)nnc31)C2(C)C)C(N)=O [Compound 50, (S)-2-(((5S,8R)-3-(2,6-difluorophenyl)-9,9-dimethyl-5,6,7,8-tetrahydro-5,8-methanocinnolin-8-yl)oxy)pentanamide] | 200
CC1(C)[C@H]2CC[C@]1([C@H]1CCCN(C(=O)c3cn[nH]c3)C1)c1nnc(-c3c(F)cccc3F)cc12 [Compound 167, [3-[5-(2,6-difluorophenyl)-11,11-dimethyl-3,4-diazatricyclo[6.2.1.02,7]undeca-2,4,6-trien-1-yl]-1-piperidyl]-(1H-pyrazol-4-yl)methanone] | 8.3
CC[C@H](O[C@@]12CC[C@@H](c3cc(-c4c(F)cccc4F)nnc31)C2(C)C)c1nnc(C)o1 [Compound 21, 2-((S)-1-(((5S,8R)-3-(2,6-difluorophenyl)-9,9-dimethyl-5,6,7,8-tetrahydro-5,8-methanocinnolin-8-yl)oxy)propyl)-5-methyl-1,3,4-oxadiazole] | 51
CC(=O)N1CCO[C@@H]([C@@]23CC[C@@H](c4cc(-c5c(F)cccc5F)nnc42)C3(C)C)C1 [Compound 72, 1-((S)-2-((5R,8R)-3-(2,6-difluorophenyl)-9,9-dimethyl-5,6,7,8-tetrahydro-5,8-methanocinnolin-8-yl)morpholino)ethanone] | 119
CC1(C)[C@H]2CC[C@]1([C@H]1CCCN(C(=O)c3ccc(=O)[nH]n3)C1)c1nnc(-c3c(F)cccc3F)cc12 [Compound 125, 3-[3-[5-(2,6-difluorophenyl)-11,11-dimethyl-3,4-diazatricyclo[6.2.1.02,7]undeca-2,4,6-trien-1-yl]piperidine-1-carbonyl]-1H-pyridazin-6-one] | 74
CC1(C)[C@H]2CC[C@]1([C@H]1CCCN(C(=O)NC3(CO)COC3)C1)c1nnc(-c3c(F)cccc3F)cc12 [Compound 171] | 6.5
CNC(=O)N1CCO[C@@H]([C@@]23CC[C@@H](c4cc(-c5c(F)cccc5F)nnc42)C3(C)C)C1 [Compound 74, (S)-2-((5R,8R)-3-(2,6-difluorophenyl)-9,9-dimethyl-5,6,7,8-tetrahydro-5,8-methanocinnolin-8-yl)-N-methylmorpholine-4-carboxamide] | 24
CC[C@@H](O[C@@]12CC[C@@H](c3cc(-c4c(F)cccc4F)nnc31)C2(C)C)c1nc[nH]n1 [Compound 40, (5S,8R)-8-((R)-1-(1H-1,2,4-triazol-3-yl)propoxy)-3-(2,6-difluorophenyl)-9,9-dimethyl-5,6,7,8-tetrahydro-5,8-methanocinnoline] | 50.1
CC[C@@H](O[C@@]12CC[C@@H](c3cc(-c4c(F)cccc4F)nnc31)C2(C)C)C(=O)N1CC(C#N)C1 [Compound 37, 1-((R)-2-(((5S,8R)-3-(2,6-difluorophenyl)-9,9-dimethyl-5,6,7,8-tetrahydro-5,8-methanocinnolin-8-yl)oxy)butanoyl)azetidine-3-carbonitrile] | 68.9
Cc1nnc(CO[C@@]23CC[C@@H](c4cc(-c5c(F)cccc5F)nnc42)C3(C)C)o1 [Compound 8, 2-((((5S,8R)-3-(2,6-difluorophenyl)-9,9-dimethyl-5,6,7,8-tetrahydro-5,8-methanocinnolin-8-yl)oxy)methyl)-5-methyl-1,3,4-oxadiazole] | 140
CC1(C)[C@H]2CC[C@]1([C@H]1CCCN(C(=O)NC3CCC3)C1)c1nnc(-c3c(F)cccc3F)cc12 [Compound 149, N-cyclobutyl-3-[5-(2,6-difluorophenyl)-11,11-dimethyl-3,4-diazatricyclo[6.2.1.02,7]undeca-2,4,6-trien-1-yl]piperidine-1-carboxamide] | 8.2
CC1(C)[C@H]2CC[C@]1([C@H]1CCCN(C(=O)NCCS(C)(=O)=O)C1)c1nnc(-c3c(F)cccc3F)cc12 [Compound 158, 3-[5-(2,6-difluorophenyl)-11,11-dimethyl-3,4-diazatricyclo[6.2.1.02,7]undeca-2,4,6-trien-1-yl]-N-(2-methylsulfonylethyl)piperidine-1-carboxamide] | 13
CC1(C)[C@H]2CC[C@]1(c1nnc(C(N)=O)o1)c1nnc(-c3c(F)cccc3F)cc12 [Compound 2, 5-((5R,8R)-3-(2,6-difluorophenyl)-9,9-dimethyl-5,6,7,8-tetrahydro-5,8-methanocinnolin-8-yl)-1,3,4-oxadiazole-2-carboxamide] | 520
CC1(C)[C@H]2CC[C@]1([C@H]1CCCN(c3cccnn3)C1)c1nnc(-c3c(F)cccc3F)cc12 [Compound 169, 5-(2,6-difluorophenyl)-11,11-dimethyl-1-(1-pyridazin-3-yl-3-piperidyl)-3,4-diazatricyclo[6.2.1.02,7]undeca-2,4,6-triene] | 40
CNS(=O)(=O)N1CCC[C@H]([C@@]23CC[C@@H](c4cc(-c5c(F)cccc5F)nnc42)C3(C)C)C1 [Compound 138, 3-[5-(2,6-difluorophenyl)-11,11-dimethyl-3,4-diazatricyclo[6.2.1.02,7]undeca-2,4,6-trien-1-yl]-N-methyl-piperidine-1-sulfonamide] | 12
CC[C@@H](O[C@@]12CC[C@@H](c3cc(-c4c(F)cccc4F)nnc31)C2(C)C)C(=O)Nc1nnc(C)o1 [Compound 55, (R)-2-(((5S,8R)-3-(2,6-difluorophenyl)-9,9-dimethyl-5,6,7,8-tetrahydro-5,8-methanocinnolin-8-yl)oxy)-N-(5-methyl-1,3,4-oxadiazol-2-yl)butanamide] | 94.8
CC[C@@H](O[C@@]12CC[C@@H](c3cc(-c4c(F)cccc4F)nnc31)C2(C)C)C(=O)NCCS(C)(=O)=O [Compound 102, (R)-2-(((5S,8R)-3-(2,6-difluorophenyl)-9,9-dimethyl-5,6,7,8-tetrahydro-5,8-methanocinnolin-8-yl)oxy)-N-(2-(methylsulfonyl)ethyl)butanamide] | 61.5
CC1(C)[C@H]2CC[C@]1(Oc1cnccn1)c1nnc(-c3c(F)cccc3F)cc12 [Compound 11, (5S,8R)-3-(2,6-difluorophenyl)-9,9-dimethyl-8-(pyrazin-2-yloxy)-5,6,7,8-tetrahydro-5,8-methanocinnoline] | 79.9
C[C@@H](O[C@@]12CC[C@@H](c3cc(-c4c(F)cccc4F)nnc31)C2(C)C)C(N)=O [Compound 42, (R)-2-(((5S,8R)-3-(2,6-difluorophenyl)-9,9-dimethyl-5,6,7,8-tetrahydro-5,8-methanocinnolin-8-yl)oxy)propanamide] | 14.4
COC(=O)N1CCO[C@@H]([C@@]23CC[C@@H](c4cc(-c5c(F)cccc5F)nnc42)C3(C)C)C1 [Compound 87, (S)-methyl 2-((5R,8R)-3-(2,6-difluorophenyl)-9,9-dimethyl-5,6,7,8-tetrahydro-5,8-methanocinnolin-8-yl)morpholine-4-carboxylate] | 36.8
CC(C)NC(=O)N1CCC[C@H]([C@@]23CC[C@@H](c4cc(-c5c(F)cccc5F)nnc42)C3(C)C)C1 [Compound 137, 3-[5-(2,6-difluorophenyl)-11,11-dimethyl-3,4-diazatricyclo[6.2.1.02,7]undeca-2,4,6-trien-1-yl]-N-isopropyl-piperidine-1-carboxamide] | 42
